# In patent US20080293725A1, “Prognostic Molecular Markers” (priority 2004, published 2008):
# Where “and” joins values, the source holds several entries; their conditions need not be identical. Equal values may be shown once.
# How the values were obtained:
# sarcoma patients = experiment: Clinical outcome of sarcoma patients treated with ET-743, matched with BRCA1, ERCC1 and XPD mRNA expression in tumor samples; type: in vivo, human; design: PFS6 rate (progression free survival higher than 6 months) / patients achieving progression free survival >=6 months (PFS6) / overall progression free survival at 6 months (Kaplan-Meier) / median survival at 12 months: concentration or dose not given beside the values
# Experimental: In this study, 61 paraffin embedded tumoral samples from sarcoma patients before the treatment with any chemotherapy agent have been evaluated.
# The majority of patients were treated before with one or several chemotherapy agents and later they followed a treatment with ET-743. The dosage of intravenous infusion ET-743 given to the different patients was within the range of 1.650-1.0 mg/m2; the schedules were 24 hours or 3 hour IV infusion with a three week interval between cycles; and the number of cycles ranged from 1 up to 25 cycles in some patients.
# The clinical data from the patients was collected in the clinical data collection form and matched with the molecular data after completion of the mRNA expression levels determination (Table 1).
# We examined XPD, ERCC1 and/or BRCA1 gene expression in formalin-fixed, paraffin-embedded tumor specimens from the 61 patients as previously described (Specht K. et al. Am J Pathol, 2001, 158, 419-429 and Krafft A E. et al. Mol Diagn. 1997, 3, 217-230). After standard tissue sample deparaffinisation using xylene and alcohols, samples were lysed in a tris-chloride, EDTA, sodium dodecyl sulphate (SDS) and proteinase K containing buffer. RNA was then extracted with phenol-chloroform-isoamyl alcohol followed by precipitation with isopropanol in the presence of glycogen and sodium acetate. RNA was resuspended in RNA storage solution (Ambion Inc; Austin Tex., USA) and treated with DNAse I to avoid DNA contamination. cDNA was synthesized using M-MLV retrotranscriptase enzyme. Template cDNA was added to Taqman Universal Master Mix (AB; Applied Biosystems, Foster City, Calif., USA) in a 20-μl reaction with specific primers and probe for each gene. The primer and probe sets were designed using Primer Express 2.0 Software (AB). Quantification of gene expression was performed using the ABI Prism 7900HT Sequence Detection System (AB). The primers and 5′ labeled fluorescent reporter dye (6FAM) probe were as follows: β-actin: forward 5′ TGA GCG CGG CTA CAG CTT 3′, reverse 5′ TCCTTAATGTCACGCACGATTT 3′, probe 5′ ACC ACC ACG GCC GAG CGG 3′; BRCA1: forward 5′ GGCTATCCTCTCAGAGTGACATTTTA 3′, reverse 5′ GCTTTATCAGGTTATGTTGCATGGT 3′, probe 5′ CCA CTC AGC AGA GGG 3′; ERCC1: forward 5′ GGGAATTTGGCGACGTAATTC 3′, reverse 5′ GCG GAG GCT GAG GAA CAG 3′, probe 5′CACAGGTGCTCTGGCCCAGCACATA 3′; XPD: forward 5′ GCTCCCGCAAAAACTTGTGT 3′, reverse 5′ CAT CGA CGT CCT TCC CAA A 3′, probe 5′ ACCCTGAGGTGACACCCCTGC 3′.
# Relative gene expression quantification was calculated according to the comparative Ct method using β-actin as an endogenous control and commercial RNA controls (Stratagene, La Jolla, Calif.) as calibrators. Final results, were determined as follows: 2^−(^Δ^Ct sample−^Δ^Ct calibrator), where ΔCT values of the calibrator and sample are determined by subtracting the […]. In all experiments, only triplicates with a standard deviation (SD) of the Ct value <0.20 were accepted. In addition, for each sample analyzed, a retrotranscriptase minus control was run in the same plate to assure lack of genomic DNA contamination.
# SAS v8.2 (statistical software) was used for all the statistical analysis. The statistical techniques for univariate, bivariate and multivariate variables were chosen, according with the nature of variables that will be analysed, i.e. when the dependent variable is a temporal variable with censor status the Cox regression would be applied, when correlation between variables will be computed the Pearson and/or Spearman measures would be used. P-values below 0.05 will be considered statistically significant in all tests, when appropriate 95% confidence intervals will be presented too.
# A total of 61 paraffin embedded tumor samples were evaluated. […] These samples came from sarcoma patients before being treated with a chemotherapy agent.
# [1] = test system: HCC1937 breast cancer cell line; conditions: wild-type BRCA1 reconstituted vs BRCA1-negative HCC1937; cited from earlier work
# [2] = BRCA1 mRNA <1.97 (low expression)
# [3] = BRCA1 mRNA >=1.97 (high expression)
# [4] = ERCC1 mRNA <5.86 (low expression)
# [5] = ERCC1 mRNA >=5.86 (high expression)
# [6] = Kaplan-Meier FIG. 2A, high BRCA1 expressers
# [7] = Kaplan-Meier FIG. 2A, high BRCA1 expression
# [8] = Kaplan-Meier FIG. 2A, low BRCA1 expression
# [9] = Kaplan-Meier FIG. 2B, high ERCC1 expression
# [10] = Kaplan-Meier FIG. 2B, low ERCC1 expression
# [11] = Kaplan-Meier FIG. 2C (XPD), high expression
# [12] = Kaplan-Meier FIG. 2C (XPD), low expression
# [13] = XPD mRNA <1.99 (low expression)
# [14] = XPD mRNA >=1.99 (high expression)
smiles,measurement,setting,value
"COc1cc2c(cc1O)CCN[C@]21CS[C@@H]2c3c(OC(C)=O)c(C)c4c(c3[C@H](COC1=O)N1[C@@H]2[C@H]2c3c(cc(C)c(OC)c3O)C[C@@H]([C@@H]1O)N2C)OCO4 [ET-743, ecteinascidin 743]","increase in objective response, low BRCA1 subpopulation vs full cohort",sarcoma patients; 16% to 21%,1.3 fold
same,"increase in PFS6 rate, low BRCA1 subpopulation vs full cohort",sarcoma patients; 24% to 38%,1.6 fold
same,"overall response rate (RR), PR + Minor Responses",sarcoma patients; 55 evaluable patients,16%
same,"overall response rate (RR), only Partial Responses",sarcoma patients; 55 evaluable patients,15%
same,patients achieving progression free survival >=6 months (PFS6),"sarcoma patients; 55 evaluable patients, (8 PR+1 MR+6 SD)/55",27%
same,PD (number of patients),"sarcoma patients; BRCA1 cohort, Total",30
same,PFS <6 (number of patients),"sarcoma patients; BRCA1 cohort, Total",38
same,PFS >=6 (number of patients),"sarcoma patients; BRCA1 cohort, Total",12
same,PR + MR (number of patients),"sarcoma patients; BRCA1 cohort, Total",8
same,PD (number of patients),sarcoma patients; BRCA1 mRNA <1.97,12
same,PFS <6 (number of patients),sarcoma patients; BRCA1 mRNA <1.97,16
same,PFS >=6 (number of patients),sarcoma patients; BRCA1 mRNA <1.97,9
same,PR + MR (number of patients),sarcoma patients; BRCA1 mRNA <1.97,5
same,objective response (PR+MR),sarcoma patients; [2],21%
same,patients reaching PFS6 (PFS >=6 months),sarcoma patients; [2],38% and 36%
same,PD (number of patients),sarcoma patients; BRCA1 mRNA >=1.97,18
same,PFS <6 (number of patients),sarcoma patients; BRCA1 mRNA >=1.97,22
same,PFS >=6 (number of patients),sarcoma patients; BRCA1 mRNA >=1.97,3
same,PR + MR (number of patients),sarcoma patients; BRCA1 mRNA >=1.97,3
same,objective response (PR+MR),sarcoma patients; [3],11%
same,patients reaching PFS6 (PFS >=6 months),sarcoma patients; [3],12%
same,PD (number of patients),"sarcoma patients; ERCC1 cohort, Total",22
same,PFS <6 (number of patients),"sarcoma patients; ERCC1 cohort, Total",29
same,PR + MR (number of patients),"sarcoma patients; ERCC1 cohort, Total",6
same,PD (number of patients),sarcoma patients; ERCC1 mRNA <5.86,12
same,PFS <6 (number of patients),sarcoma patients; ERCC1 mRNA <5.86,16
same,PFS >=6 (number of patients),sarcoma patients; ERCC1 mRNA <5.86,3
same,PR + MR (number of patients),sarcoma patients; ERCC1 mRNA <5.86,2
same,objective response (PR+MR),sarcoma patients; [4],11%
same,patients reaching PFS6 (PFS >=6 months),sarcoma patients; [4],16%
same,PD (number of patients),sarcoma patients; ERCC1 mRNA >=5.86,10
same,PFS <6 (number of patients),sarcoma patients; ERCC1 mRNA >=5.86,13
same,PFS >=6 (number of patients),sarcoma patients; ERCC1 mRNA >=5.86,6
same,PR + MR (number of patients),sarcoma patients; ERCC1 mRNA >=5.86,4
same,objective response (PR+MR),sarcoma patients; [5],21%
same,patients reaching PFS6 (PFS >=6 months),sarcoma patients; [5],32%
same,PFS (median),sarcoma patients; [6],1.5 months
same,median survival,sarcoma patients; [6],5.4 months
same,median survival at 12 months,sarcoma patients; [7],35.71%
same,percentage of patients with PFS6,sarcoma patients; [7],11.54%
same,PFS (median),sarcoma patients; [8],2.3 months
same,median survival,sarcoma patients; [8],11.7 months
same,median survival at 12 months,sarcoma patients; [8],42.23%
same,percentage of patients with PFS6,sarcoma patients; [8],41.67%
same,median survival,"sarcoma patients; Kaplan-Meier FIG. 2B, high ERCC1 expressers",19.4 months
same,PFS6,sarcoma patients; [9],31.58%
same,median PFS,sarcoma patients; [9],2.2 months
same,PFS6,sarcoma patients; [10],21.05%
same,median PFS,sarcoma patients; [10],1.4 months
same,median survival,sarcoma patients; [10],16.8 months
same,PFS6,sarcoma patients; [11],30%
same,median PFS,sarcoma patients; [11],2.0 months
same,median survival,sarcoma patients; [11],19.4 months
same,median survival,"sarcoma patients; Kaplan-Meier FIG. 2C (XPD), low expressers",16.8 months
same,PFS6,sarcoma patients; [12],17.65%
same,median PFS,sarcoma patients; [12],1.2 months
same,PD (number of patients),"sarcoma patients; XPD cohort, Total",22
same,PFS <6 (number of patients),"sarcoma patients; XPD cohort, Total",29
same,PFS >=6 (number of patients),"sarcoma patients; XPD cohort, Total",8
same,PR + MR (number of patients),"sarcoma patients; XPD cohort, Total",5
same,PD (number of patients),sarcoma patients; XPD mRNA <1.99,11
same,PFS <6 (number of patients),sarcoma patients; XPD mRNA <1.99,14
same,PFS >=6 (number of patients),sarcoma patients; XPD mRNA <1.99,3
same,PR + MR (number of patients),sarcoma patients; XPD mRNA <1.99,2
same,objective response (PR+MR),sarcoma patients; [13],12%
same,patients reaching PFS6 (PFS >=6 months),sarcoma patients; [13],18%
same,PD (number of patients),sarcoma patients; XPD mRNA >=1.99,11
same,PFS <6 (number of patients),sarcoma patients; XPD mRNA >=1.99,15
same,PFS >=6 (number of patients),sarcoma patients; XPD mRNA >=1.99,5
same,PR + MR (number of patients),sarcoma patients; XPD mRNA >=1.99,3
same,objective response (PR+MR),sarcoma patients; [14],15%
same,patients reaching PFS6 (PFS >=6 months),sarcoma patients; [14],25%
same,median duration of the response (PR+MR),sarcoma patients; all patients,13.6 months
same,range of duration of the response (PR+MR),sarcoma patients; all patients,44.1 to 3.8 months
same,range of survival,sarcoma patients; all patients,0.1-66.9 months
same,median survival,"sarcoma patients; all patients, 14 patients still censored",7.7 months
same,median survival (Kaplan-Meier),"sarcoma patients; all patients, FIG. 1",10.2 months
same,overall progression free survival at 6 months (Kaplan-Meier),"sarcoma patients; all patients, FIG. 1",27.65%
same,objective response (PR+MR),sarcoma patients; full cohort with BRCA1 data (8/51),16%
same,PFS6 rate (progression free survival higher than 6 months),sarcoma patients; full cohort with BRCA1 data (12/50),24%
N.N.[Cl][Pt][Cl] [cisplatin],increase in resistance,[1],20 fold
